These results are taken from patent publication US20240335462A1, “SULFUR/PHOSPHORUS-CONTAINING ARYL COMPOUND AND APPLICATION THEREOF” (MEDSHINE DISCOVERY INC., priority 2021, published 2024).

Experiment [1] deals with TYK2 JH2 pseudokinase (Homo sapiens, UniProt P29597). Briefly: Inhibitory activity on TYK2 JH2 pseudokinase (TR-FRET). Format: binding. The settings on record: 60 min room temperature, read-out: Kinase half maximal inhibitory concentration IC50 TYK2 JH2. The protocol:
In this experiment, the inhibitory effect of compounds on TYK2 JH2 pseudokinase was tested using the method of time-resolved fluorescence resonance energy transfer (TR-FRET). In the experiment, TYK2 JH2 or JAK1 JH2 pseudokinase can simultaneously bind to fluorescently labeled Tracer and Tb antibody to form a “sandwich structure”. Tb antibody, functioning as a fluorescent donor, produces fluorescence at a wavelength of 495 nm under the excitation of light at a specific wavelength. Tracer, functioning as a fluorescent acceptor, can receive fluorescence at a wavelength of 495 nm and thus produce fluorescence at a wavelength of 520 nm, i.e., a time-resolved fluorescence resonance energy transfer (TR-FRET) signal, only when it is within the “sandwich structure”, i.e., when it is sufficiently close to Tb antibody. When the compound is added to compete with Tracer for binding to the pseudokinase, the binding of Tracer decreases, leading to a weakened TR-FRET signal. The inhibitory activity of the compound binding to the pseudokinase can be reflected by the ratio of signal values at 520 nm/495 nm.
The working solution consists of the following components: HEPES (pH 7.5) at a final concentration of 20 mM; MgCl2 at a final concentration of 10 mM; Brij-35 at a final concentration of 0.015%; DTT at a final concentration of 2 mM; and BSA at a final concentration of 50 μg/mL.
• a) The compound was dissolved in DMSO to achieve a storage concentration of 10 mM. • b) Various concentrations of the compound, 200 times the final concentration, were prepared in a compound dilution plate and transferred to an Echo plate. • c) The Echo instrument was used to transfer 150 nL of the compound from the Echo plate to a 384-well experimental plate. • d) 5 μL of TYK2 JH2 kinase, at three times the final concentration, was added to the 384-well experimental plate. • e) 5 μL of Tb, at three times the final concentration, was added to the 384-well experimental plate. • f) 5 μL of Tracer, at three times the final concentration, was added to the 384-well experimental plate. • g) The plate was centrifuged for 30 seconds and then incubated at room temperature for 60 minutes. • h) The fluorescence signal values at 520 nm/495 nm were measured using an Envision plate reader (PerkinElmer).
Data analysis was performed using the XL-Fit software to determine the IC50 of the compounds.
In general terms: TR-FRET usually uses a lanthanide donor and a delayed reading to cut background.

Experiment [2] addresses Ba/F3-FL-TYK2-E957D cells (Homo sapiens, UniProt P29597, E957D, cells depend on it). Briefly: Proliferation of Ba/F3-FL-TYK2-E957D cells (CellTiter-Glo). Format: cell-based, mouse. The settings on record: 72 hours, read-out: Half maximal inhibitory concentration IC50 for cells Ba/F3-FL-TYK2-E957D. The text has this:
Adenosine triphosphate (ATP) serves as a universal energy carrier in various life processes, representing the smallest unit of energy storage and transfer. The CellTiter-Glo™ Luminescent Cell Viability Assay Kit utilizes luciferase as a detection agent. During the luminescent process, luciferase requires the participation of ATP. By adding CellTiter-Glo™ reagent to the cell culture medium and measuring the luminescence, the light signal was directly proportional to the amount of ATP in the system, and ATP was positively correlated with the number of viable cells. Therefore, cell proliferation can be detected by measuring ATP content using the CellTiter-Glo kit. In this test, the cell lines used were Ba/F3-FL-TYK2-E957D and Ba/F3-TEL-TYK2. Ba/F3-FL-TYK2-E957D cells can stably express the exogenously introduced human TYK2-E957D gene, and the TYK2-E957D gene sequence contains both JH1 and JH2 domains. On the other hand, Ba/F3-TEL-TYK2 cells can stably express the exogenously introduced human TEL-TYK2 gene, and the TEL-TYK2 gene sequence contains only the JH1 domain of TYK2.
The cell lines were cultured in an incubator at 37° C. with 5% CO2. Regular passaging was performed, and cells in the logarithmic growth phase were selected for plating.
• a) The test compounds were prepared into a 10 mM solution with DMSO, and then diluted to 0.3 or 1 mM with DMSO. • b) Preparation of 1000× compound storage plate (tube): The compounds were 3-fold serially diluted from the highest concentration to the lowest concentration, creating 9 different concentrations. • c) Preparation of 20× compound working solution: 49 μL of cell culture medium was added to a flat-bottomed 96-well transparent drug plate. From the 1000× compound storage plate, 1 μL of the compound was pipetted into the cell culture medium in the 96-well transparent drug plate. In the solvent control, 1 μL of DMSO was added. After the compound or DMSO was added, the mixture was homogenized using a multi-channel pipette.
• a) Cells were stained with trypan blue and viable cells were counted to ensure a cell viability of 90% or more. • b) 95 μL of cell suspension (2000 cells/well) was added to each well of the compound assay cell plate, and cell-free culture medium containing 0.1% DMSO was added to the Min control wells. • c) Administration in the compound assay cell plate: 5 μL of 20× compound working solution was added to the cell culture plate. 5 μL of DMSO-cell culture medium mixture was added to the Max control wells. The final concentration of DMSO was 0.1%. • d) The culture plate was then incubated in an incubator at 37° C. with 5% CO2 for 72 hours.
The following steps were conducted in accordance with the instructions of the Promega CellTiter-Glo Luminescent Cell Viability Assay Kit (Promega-G7573). • a) CellTiter-Glo buffer was thawed and brought to room temperature. • b) CellTiter-Glo substrate was also brought to room temperature. • c) CellTiter-Glo buffer was added to a bottle of CellTiter-Glo substrate to dissolve the substrate, thereby preparing CellTiter-Glo working solution. • d) The mixture was slowly vortexed and shaken to be fully dissolved. • e) The cell culture plate was removed and allowed to equilibrate to room temperature for 10 minutes. • f) 50 μL (equal to half the volume of cell culture medium in each well) of CellTiter-Glo working solution was added to each well. • g) The culture plate was shaken on an orbital shaker for 2 minutes to induce cell lysis. • h) The plate was then left at room temperature for 10 minutes to stabilize the luminescent signal. • i) The luminescent signal was detected using a SpectraMax Paradigm plate reader.
Data analysis was conducted using GraphPad Prism 5.0 software. Nonlinear S-curve regression was employed to fit the data and generate dose-response curves. From these curves, the IC50 values were calculated.

SMILES strings stand for the structures. Counter-ions that a name gives are not always drawn.

TYK2 JH2 pseudokinase, sequence (P29597 589-875 limits assumed): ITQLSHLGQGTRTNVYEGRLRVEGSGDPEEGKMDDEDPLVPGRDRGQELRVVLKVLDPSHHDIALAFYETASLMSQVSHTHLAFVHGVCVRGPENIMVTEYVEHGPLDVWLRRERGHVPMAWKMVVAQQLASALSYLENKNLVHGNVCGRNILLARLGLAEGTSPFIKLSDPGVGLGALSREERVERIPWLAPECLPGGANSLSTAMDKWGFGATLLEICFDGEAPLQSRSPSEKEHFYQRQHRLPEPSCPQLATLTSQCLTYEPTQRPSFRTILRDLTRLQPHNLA
Ba/F3-FL-TYK2-E957D cells, sequence (P29597 whole entry E957D): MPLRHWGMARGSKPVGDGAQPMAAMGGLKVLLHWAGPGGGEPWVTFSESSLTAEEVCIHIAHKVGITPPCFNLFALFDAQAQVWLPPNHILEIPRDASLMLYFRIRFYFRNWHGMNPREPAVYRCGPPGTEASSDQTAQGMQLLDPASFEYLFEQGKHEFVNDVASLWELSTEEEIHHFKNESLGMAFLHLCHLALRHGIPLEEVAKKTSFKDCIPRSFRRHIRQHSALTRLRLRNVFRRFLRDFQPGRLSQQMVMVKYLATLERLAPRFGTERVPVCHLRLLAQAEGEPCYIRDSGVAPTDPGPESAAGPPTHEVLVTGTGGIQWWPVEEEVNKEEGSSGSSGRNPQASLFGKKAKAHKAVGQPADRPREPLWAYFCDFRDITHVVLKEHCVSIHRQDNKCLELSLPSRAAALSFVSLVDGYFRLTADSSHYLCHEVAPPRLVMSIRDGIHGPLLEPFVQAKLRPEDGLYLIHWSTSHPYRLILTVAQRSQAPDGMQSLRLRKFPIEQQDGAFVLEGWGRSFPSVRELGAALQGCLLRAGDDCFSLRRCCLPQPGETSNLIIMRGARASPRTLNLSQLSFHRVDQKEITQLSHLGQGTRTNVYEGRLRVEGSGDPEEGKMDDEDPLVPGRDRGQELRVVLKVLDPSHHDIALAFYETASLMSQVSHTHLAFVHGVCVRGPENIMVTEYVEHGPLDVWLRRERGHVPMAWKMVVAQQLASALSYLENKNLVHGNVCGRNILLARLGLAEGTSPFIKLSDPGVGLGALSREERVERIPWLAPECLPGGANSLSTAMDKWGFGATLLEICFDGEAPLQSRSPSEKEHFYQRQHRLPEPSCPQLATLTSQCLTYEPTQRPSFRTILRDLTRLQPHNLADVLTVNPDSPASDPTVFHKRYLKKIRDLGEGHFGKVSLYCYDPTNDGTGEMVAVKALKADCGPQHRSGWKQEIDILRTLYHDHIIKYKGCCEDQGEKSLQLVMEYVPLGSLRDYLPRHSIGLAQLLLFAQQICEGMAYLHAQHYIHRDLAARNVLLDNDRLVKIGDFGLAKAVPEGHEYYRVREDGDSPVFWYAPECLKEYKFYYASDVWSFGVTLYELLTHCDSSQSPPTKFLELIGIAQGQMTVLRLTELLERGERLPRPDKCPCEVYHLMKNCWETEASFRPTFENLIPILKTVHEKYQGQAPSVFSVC

Turning to `[2H]C([2H])([2H])NC(=O)c1cnc(NC(=O)C2CC2)cc1Nc1cccc(-c2ccc(S(C)(=O)=O)cn2)c1OC` [WX-004], the IC50 in experiment [1] was found to be 0.2 nM. Further, the GI50 in experiment [2] was 5.5 nM. With `CNC(=O)c1nnc(NC(=O)C2CC2)cc1Nc1cccc(-c2ccc(P(=O)(C(C)C)C(C)C)cc2)c1OC` [WX-023], the GI50 in experiment [2] stood at 13.8 nM. Still for that read-out and setting: in the case of `CCN=S(=O)(c1ccc(-c2cccc(Nc3cc(NC(=O)C4CC4)nnc3C(=O)NC)c2OC)nc1)C(C)C` (stereo not drawn) [Hydrochloride of WX-016] it was 11.7 nM; in that of `CNC(=O)c1nnc(NC(=O)C2CC2)cc1Nc1cccc(-c2ccc(S(=N)(=O)C(C)C)nn2)c1OC` (single isomer, unassigned) [WX-036B], 17.3 nM; in that of `[2H]C([2H])([2H])NC(=O)c1cnc(NC(=O)C2CC2)cc1Nc1cccc(-c2ccc(S(C)(=O)=NC)cc2)c1OC` (stereo not drawn) [Hydrochloride of WX-010], 12.6 nM. Same read-out and setting: in the case of `CNC(=O)c1nnc(NC(=O)C2CC2)cc1Nc1cccc(-c2ccc(P(=O)(C3CC3)C3CC3)cc2)c1OC` [WX-024] it was 10 nM; in that of `[2H]C([2H])([2H])NC(=O)c1cnc(NC(=O)C2CC2)cc1Nc1cccc(-c2ncc(S(=N)(=O)C(C)C)cn2)c1OC` (stereo not drawn) [Trifluoroacetate of WX-009], 12.1 nM. On the same count and under the same terms, the same measure for `CNC(=O)c1cnc(NC(=O)C2CC2)cc1Nc1cccc(-c2ncc(S(=O)(=O)N(C)C)cn2)c1OC` [Hydrochloride of WX-017]: 4 nM; for `CNC(=O)c1nnc(NC(=O)C2CC2)cc1Nc1cccc(-c2ccc(S(=N)(=O)C(C)C)nc2)c1OC` (single isomer, unassigned) [WX-037B]: 17 nM; for `[2H]C([2H])([2H])NC(=O)c1cnc(NC(=O)C2CC2)cc1Nc1cccc(-c2ccc(S(C)(=O)=O)cc2)c1OC` [Hydrochloride of WX-007]: 9.5 nM. As to `[2H]C([2H])([2H])NC(=O)c1nnc(NC(=O)C2CC2)cc1Nc1cc(F)cc(-c2ccc(P(C)(C)=O)cc2)c1OC` [Hydrochloride of WX-027], in experiment [2], the GI50 was determined as 18.3 nM. The same measure, in the same setting: in the case of `CNC(=O)c1nnc(NC(=O)C2CC2)cc1Nc1cccc(-c2ncc(S3(=O)=NCCCC3)cn2)c1OC` (stereo not drawn) [Hydrochloride of WX-029] it was 3.8 nM. On to `CNC(=O)c1cnc(NC(=O)C2CC2)cc1Nc1cccc(-c2ncc(S(=O)(=O)N3CCC3)cn2)c1OC` [Hydrochloride of WX-018], for which the IC50 in experiment [1] is 0.13 nM. Besides, the GI50 in experiment [2] is 4.2 nM. For the compound `[2H]C([2H])([2H])NC(=O)c1nnc(NC(=O)C2CC2)cc1Nc1cccc(-c2ccc(P(C)(C)=O)cc2)c1OC` [Hydrochloride of WX-008], the GI50 in experiment [2] turned out to be 16 nM. Same read-out and setting: the same measure for `CNC(=O)c1cnc(NC(=O)C2CC2)cc1Nc1cc(F)cc(-c2ccc(S(C)(=O)=O)cc2)c1OC` [Trifluoroacetate of WX-026]: 18.8 nM. The same measure, in the same setting: in the case of `CNC(=O)c1cnc(NC(=O)C2CC2)cc1Nc1cccc(-c2ccc(S(=O)(=O)C(C)C)nn2)c1OC` [WX-038] it was 3 nM. As to `[2H]C([2H])([2H])NC(=O)c1cnc(NC(=O)C2CC2)cc1Nc1cccc(-c2ncc(S(C)(=O)=O)cn2)c1OC` [Hydrochloride of WX-001], the IC50 in experiment [1] was 0.27 nM. Moreover, the GI50 in experiment [2] amounted to 13.7 nM. For the compound `COc1c(Nc2cc(NC(=O)C3CC3)nnc2C(N)=O)cccc1-c1ccc(S(=N)(=O)C(C)C)cn1` (stereo not drawn) [Hydrochloride of WX-032], the GI50 in experiment [2] came to 2.9 nM. In the case of `[2H]C([2H])([2H])NC(=O)c1cnc(NC(=O)C2CC2)cc1Nc1cccc(-c2ncc([S+](C)[O-])cn2)c1OC` (stereo not drawn) [Hydrochloride of WX-002], the IC50 in experiment [1] amounted to 0.19 nM. Moreover, in experiment [2], the GI50 stood at 19.2 nM.

`[2H]C([2H])([2H])NC(=O)c1cnc(NC(=O)C2CC2)cc1Nc1cccc(-c2ncc(S(=O)(=O)N3CCCC3)cn2)c1OC` [Hydrochloride of WX-006]: the GI50 in experiment [2] was found to be 10.6 nM. The same measure, in the same setting: the same measure for `CN=S(=O)(c1ccc(-c2cccc(Nc3cc(NC(=O)C4CC4)nnc3C(=O)NC)c2OC)nc1)C(C)C` (stereo not drawn) [Trifluoroacetate of WX-014]: 10.9 nM.

As for `CNC(=O)c1cnc(NC(=O)C2CC2)cc1Nc1cc(F)cc(-c2ncc(S(=O)(=O)C(C)C)cn2)c1OC` [WX-030], the GI50 in experiment [2] is 2 nM.

Regarding `[2H]C([2H])([2H])NC(=O)c1cnc(NC(=O)C2CC2)cc1Nc1cccc(-c2ncc(S(C)(=N)=O)cn2)c1OC` (stereo not drawn) [WX-003], the IC50 in experiment [1] is 0.34 nM. `CNC(=O)c1nnc(NC(=O)C2CC2)cc1Nc1cccc(-c2ncc(S(=N)(=O)C3CC3)cn2)c1OC` (stereo not drawn) [WX-028]: the GI50 in experiment [2] came to 4 nM. Still for that read-out and setting: the same measure for `CNC(=O)c1cnc(NC(=O)C2CC2)cc1Nc1cccc(-c2ccc(S(=O)(=O)C(C)C)nc2)c1OC` [WX-039]: 4.7 nM; for `CNC(=O)c1nnc(NC(=O)C2CC2)cc1Nc1cccc(-c2ccc(S(=N)(=O)C(C)C)nc2)c1OC` (single isomer, unassigned) [WX-037A]: 15 nM.
